This passage reports CC50 results from paper PMC6792352, “Limited Chemical Structural Diversity Found to Modulate Thyroid Hormone Receptor in the Tox21 Chemical Library” (Environmental Health Perspectives, 2019).

Structures can show the parent of a compound that is named as a salt. A value given as a limit tells only on which side of the number the result lay.

The first data set can be described thus: in vitro. As to conditions: rat, gh3-tre-luc cells, AC50 (uM) modified / 1000.
In turn, `NCCc1cc[nH]n1` [Betazole hydrochloride] displayed a half-maximal cytotoxic concentration (CC50) at 24 h of more than 20 µM.
In turn, `CC(C[N+](C)(C)C)OC(N)=O` (stereo not drawn) [Bethanechol] showed a CC50 at 24 h of more than 50 µM.
Compound `C/N=C(\NC)NCc1ccccc1` [Bethanidine sulfate (2:1)] yielded a CC50 at 24 h of more than 50 µM.
In turn, `O=C(O)CNC(=O)CNC(=O)CNC(=O)CSC(=O)c1ccccc1` [Betiatide] came in with a CC50 at 24 h of more than 50 µM.
`COc1ccc(CCNCC(O)COc2cccc(C)c2)cc1OC` (stereo not drawn) [Bevantolol hydrochloride] came in with a 50% cytotoxic concentration (CC50) at 24 h of 20.6 µM.
On to `C=C(c1ccc(C(=O)O)cc1)c1cc2c(cc1C)C(C)(C)CCC2(C)C` [Bexarotene], for which it took 16.1 µM to reach half-maximal cytotoxicity (CC50 at 24 h).
The compound `C[C@@H](O)[C@H]1C(=O)N2C(C(=O)[O-])=C(SC3Cn4cnc[n+]4C3)[C@H](C)[C@H]12` (stereo partly drawn) [Biapenem] displayed a CC50 at 24 h of more than 50 µM.
On the same count and under the same terms, then `c1ccc(CCc2ccccc2)cc1` [Bibenzyl], with more than 90 µM.
In turn, `CC(O)(CS(=O)(=O)c1ccc(F)cc1)C(=O)Nc1ccc(C#N)c(C(F)(F)F)c1` (stereo not drawn) [Bicalutamide] came in with a CC50 at 24 h of more than 50 µM.
As to `CCOC(=O)[C@H](CS)NCCN[C@@H](CS)C(=O)OCC` [Bicisate dihydrochloride], the CC50 at 24 h is more than 50 µM.
Regarding `COc1ccc(-c2ccccc2)cc1NNC(=O)OC(C)C` [Bifenazate], the CC50 at 24 h worked out at 87.4 µM.
Still for that read-out and setting: then `COC(=O)c1cc(Oc2ccc(Cl)cc2Cl)ccc1[N+](=O)[O-]` [Bifenox], with more than 90 µM; and `c1ccc(-c2ccc(C(c3ccccc3)n3ccnc3)cc2)cc1` (stereo not drawn) [Bifonazole], with 45.2 µM; and `O=C(COCCOCCOCC(=O)Nc1c(I)cc(I)c(C(=O)O)c1I)Nc1c(I)cc(I)c(C(=O)O)c1I` [Biliscopin], with more than 50 µM.
`O=C(O)Cc1cccc(-c2cc(CCCCCCc3ccc(O[C@H]4O[C@H](CO)[C@@H](O)[C@H](O)[C@@H]4O)c(-c4cccc(CC(=O)O)c4)c3)ccc2O[C@H]2O[C@H](CO)[C@@H](O)[C@H](O)[C@@H]2O)c1` [Bimosiamose] registered a CC50 at 24 h of more than 50 µM.
Compound `CCC(C)c1cc([N+](=O)[O-])cc([N+](=O)[O-])c1OC(=O)C=C(C)C` (stereo not drawn) [Binapacryl] came in with a CC50 at 24 h of 36.3 µM.
On the same count and under the same terms, then `O=C1CC2(CCCC2)CC(=O)N1CCNCC1COc2ccccc2O1` (stereo not drawn) [Binospirone mesylate], with 41.9 µM; and `COc1ccc(-c2coc3cc(O)cc(O)c3c2=O)cc1` [Biochanin A], with more than 90 µM; and `CC(C)=C[C@@H]1[C@@H](C(=O)OCc2coc(Cc3ccccc3)c2)C1(C)C` [Bioresmethrin], with more than 90 µM.
The compound `O=C(O)CCCC[C@@H]1SC[C@@H]2NC(=O)N[C@@H]21` [Biotin] came in with a CC50 at 24 h of more than 90 µM.
As to `NCc1ccccc1Sc1ccccc1CO` [Bipenamol], the CC50 at 24 h was more than 50 µM.
As to `c1ccc(-c2ccccc2)cc1` [Biphenyl], the 50% cytotoxic concentration (CC50) at 24 h is more than 90 µM.
The compound `S=C(SSSSSSC(=S)N1CCCCC1)N1CCCCC1` [Bis(1-piperidinylthioxomethyl)hexasulfide] gave a CC50 at 24 h of 0.0827 µM.
As to `CC1(C)CC(OC(=O)CCCCCCCCC(=O)OC2CC(C)(C)NC(C)(C)C2)CC(C)(C)N1` [Bis(2,2,6,6-tetramethyl-4-piperidyl) sebacate], the CC50 at 24 h was 1.55 µM.
For `CCCCOCCOC(=O)CCCCCCCCC(=O)OCCOCCCC` [Bis(2-butoxyethyl) decanedioate], the CC50 at 24 h is more than 90 µM.
Regarding `CCCCOCCOC(=O)c1ccccc1C(=O)OCCOCCCC` [Bis(2-butoxyethyl) phthalate], the CC50 at 24 h is more than 90 µM.
As to `CCC(C)OC(C)CC` (stereo not drawn) [Bis(2-butyl) ether], the CC50 at 24 h is more than 100 µM.
In the case of `ClCCOCCCl` [Bis(2-chloroethyl) ether], the CC50 at 24 h was more than 90 µM.
`CCCCC(CC)COC(=O)CCCCCCCCC(=O)OCC(CC)CCCC` (stereo not drawn) [Bis(2-ethylhexyl) decanedioate] showed a CC50 at 24 h of more than 90 µM.
Compound `CCCCC(CC)COC(=O)/C=C\C(=O)OCC(CC)CCCC` (stereo not drawn) [Bis(2-ethylhexyl) maleate] registered a 50% cytotoxic concentration (CC50) at 24 h of more than 90 µM.
In the case of `CCCCC(CC)COC(=O)CCCCCCCC(=O)OCC(CC)CCCC` (stereo not drawn) [Bis(2-ethylhexyl) nonanedioate], the CC50 at 24 h is more than 90 µM.
In the case of `CCCCC(CC)COP(=O)(O)OCC(CC)CCCC` (stereo not drawn) [Bis(2-ethylhexyl) phosphate], the midpoint of cytotoxicity, the CC50 at 24 h, lay at 63.4 µM. This counts as double-digit micromolar.
Turning to `CCCCC(CC)COC(=O)c1ccc(C(=O)OCC(CC)CCCC)cc1` (stereo not drawn) [Bis(2-ethylhexyl) terephthalate], the CC50 at 24 h was more than 90 µM.
In turn, `CCCCC(CC)COC(=O)CCCCC(=O)OCC(CC)CCCC` (stereo not drawn) [Bis(2-ethylhexyl)hexanedioate] gave a CC50 at 24 h of more than 90 µM.
In turn, `Cc1occc1SSc1ccoc1C` [Bis(2-methyl-3-furyl)disulfide] showed a CC50 at 24 h of more than 90 µM.
`CC1CC(CC2CCC(N)C(C)C2)CCC1N` (stereo not drawn) [Bis(4-amino-3-methylcyclohexyl)methane] displayed a half-maximal cytotoxic concentration (CC50) at 24 h of 46.8 µM.
On the same count and under the same terms, the figure for `Oc1ccc(C(=C(Cl)Cl)c2ccc(O)cc2)cc1` [Bis(4-hydroxyphenyl)-2,2-dichloroethylene] is more than 90 µM; for `Oc1ccc(Cc2ccc(O)cc2)cc1` [Bis(4-hydroxyphenyl)methane] it is more than 90 µM; for `CCOC(=S)SSC(=S)OCC` [Bis(ethylxanthogen)] it is more than 90 µM.
Consider `C=C(C)C(=O)OCCOP(=O)(O)OCCOC(=O)C(=C)C` [Bis(methacryloyloxyethyl) hydrogen phosphate], for which the CC50 at 24 h is more than 90 µM.
In the case of `CCCCC(CC)CNCC(CC)CCCC` (stereo not drawn) [Bis-2-ethylhexylamine], the CC50 at 24 h was more than 90 µM.
With `CCCCOCCOCCOC(=O)CCCCC(=O)OCCOCCOCCCC` [Bis[2-(2-butoxyethoxy)ethyl] adipate], the CC50 at 24 h is more than 90 µM.
Turning to `CN(C)CCOCCN(C)C` [Bis[2-(dimethylamino)ethyl]ether], the 50% cytotoxic concentration (CC50) at 24 h was more than 90 µM.
Turning to `CC(C)=CCC[C@@](C)(O)[C@H]1CC=C(C)CC1` [Bisabolol], the CC50 at 24 h was more than 50 µM.
`CC(=O)Oc1ccc(C(c2ccc(OC(C)=O)cc2)c2ccccn2)cc1` [Bisacodyl] returned a CC50 at 24 h of more than 90 µM.
The compound `C/C(=C(\CCOC(=O)c1ccccc1)SS/C(CCOC(=O)c1ccccc1)=C(/C)N(C=O)Cc1cnc(C)nc1N)N(C=O)Cc1cnc(C)nc1N` [Bisbentiamine] displayed a CC50 at 24 h of 25.6 µM. In other words, the double-digit micromolar range.
Regarding `O=C1C=CC(=O)N1c1ccc(Cc2ccc(N3C(=O)C=CC3=O)cc2)cc1` [Bismaleimide], the CC50 at 24 h came out at 6.41 µM.
`CC(C)(C)CC(C)(C)c1cc(Cc2cc(C(C)(C)CC(C)(C)C)cc(-n3nc4ccccc4n3)c2O)c(O)c(-n2nc3ccccc3n2)c1` [Bisoctrizole] came in with a CC50 at 24 h of more than 50 µM.
Same read-out and setting: the figure for `CC(C)NCC(O)COc1ccc(COCCOC(C)C)cc1` (stereo not drawn) [Bisoprolol fumarate] is more than 50 µM; for `CC(=O)Oc1ccc(C2(c3ccc(OC(C)=O)cc3)Oc3ccccc3NC2=O)cc1` [Bisoxatin acetate] it is 4.41 µM.
`CC(c1ccc(O)cc1)c1ccc(O)cc1` [Bisphenol E] returned a CC50 at 24 h of more than 90 µM.
Same read-out and setting: then `Oc1ccc(C2(c3ccc(O)cc3)CCCCC2)cc1` [Bisphenol Z], with 39.8 µM.

Staying with this data set, now noted: rat, gh3-tre-luc cells, AC50 (uM) modified / 1000, Tox21_110001=Tox21_200284; viability, 1 nM T3 present, 24 h.
As for `ClCCOCOCCCl` [Bis(2-chloroethoxy)methane], the CC50 at 24 h is more than 100 µM.

Still in this data set, the particulars now being: rat, gh3-tre-luc cells, AC50 (uM) modified / 1000, Tox21_110001=Tox21_302404; viability, 1 nM T3 present, 24 h.
As to `CCCCC(CC)COC(=O)c1c(Br)c(Br)c(Br)c(Br)c1C(=O)OCC(CC)CCCC` (stereo not drawn) [Bis(2-ethylhexyl) tetrabromophthalate], the CC50 at 24 h was more than 70 µM.
